Measurements reported in patent US10919896B2, “Preparation and uses of pyrimidinone derivatives” (Cancer Research Technology Limited, priority 2016, dated 2021).
Where a name gives a salt, the structure may show the parent alone.

Experiments:
[1] = target: Cdc7/Dbf4 (Homo sapiens, UniProt O00311); assay: Cdc7 Biochemical Assay Method 3: Cdc7/Dbf4 Enzyme TR-FRET Assay measuring pS40MCM2; conditions: 1 μM ATP, read-out: Biochemical Method 3 (pIC50) (converted)
How it was run: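 TR-FRET read-out (terbium anti-rabbit donor, streptavidin-Alexa Fluor488 acceptor, anti-Mcm2 pS40 antibody) of peptide phosphorylation after 120 min at 25° C; reaction held 1 μM ATP, 100 nM biotin-tagged peptide substrate and 2.5 nM enzyme complex.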

[2] = tested on: Cdc7 (pS40MCM2 levels in HCT116 cells); assay: Cdc7 Cell Pharmacodynamics Assay Method 2A: pS40MCM2 levels in HCT116 cells, 6 hours; type: cell-based; conditions: Homo sapiens, HCT-116, read-out: Biomarker Method 2A (pEC50) (converted)
From the text: This protocol describes a method to investigate the inhibition of Cdc7 activity by measuring pS40MCM2 levels in cells, after treatment with compounds.
• HCT116 cells (ATCC, #CCL-247) • McCoys 5A with L-glutamine (Cellgro, #10-050-CV) • 10% FCS (Cellgro, #35-010-CV) • D-PBS without CaCl2 and MgCl2 (Cellgro, #21-031-CV) • Trypsin/EDTA (Cellgro, #25-052-CL) • BSA (Calbiochem, 126593) • Cell Extraction Buffer (Invitrogen FNN0011) • Protease inhibitor cocktail (Sigma P-2714) • PMSF 0.3M stock in DMSO (Sigma P7626) • Antibody-rabbit pMCM2 Ser40 (Abcam, AB133243) • Antibody-goat MCM2 (Bethyl #A300-122A) • Antibody-goat Anti Rabbit IgG HRP (Thermo, 31462) • SuperSignal ELISA Pico Chemiluminescent Substrate (Perbio Science UK Ltd 37069) • 10×PBS (Growcells, MRGF-6236) • Triton X100 (Sigma, P-T8787) • DMSO (Fisher, D128-1) • 2-Propanol (J. T. Baker, 9095-03) Method • Seed 1×10^6 HCT116 cells into each of two 175 cm^2 flask containing 30 mL Cell Growth Media and incubate at 37° C., 5% CO2 for 3 days. • Harvest the cells from one T175 cm^2 flask and count. • Dilute with Cell Growth Media to a cell density of 2×10^5. Dispense 100 μL to each well (20,000 HCT116 cells/well) of TC treated 96-well plate(s). • Allow cells to settle overnight in incubator set at 37° C. and 5% CO2. • Cell treatment: Transfer 0.25 μL/well from the compound plate to the wells of the cell plate(s). This is a 1:400 dilution of compound in the assay. • Once all cells are treated place the cells back to the incubator and incubate for either 6 hours (Method 2A) or 18 hours (Method 2B). • Dilute the capture antibody (total MCM2#A300-122A) 1 in 250 in the required volume of PBS (5 mL per assay plate, plus 5 mL for dead volume) and add 50 μL to each well of a Hybond plate except wells A12 & B12. Seal the plate and incubate at room temperature for a minimum of 2 hours. • Defrost aliquot of Invitrogen Cell Extraction Buffer (FNN0011) on ice and supplement with appropriate volume of both Sigma protease inhibitor cocktail (P-2714) and PMSF (final conc 1 mM from a 1 M stock in DMSO). • After the 6 hour or 18 hour cell treatment time, tap out the media from the assay plates and place them in the −70° C. freezer for at least 5 minutes. • Flick out the remaining liquid in the previously prepared capture Ab plate(s) and add 200 μL 2% BSA per well. Incubate for 1 hour at room temperature. • Remove plates from freezer and add 20 μL of ice cold complete lysis buffer. Incubate cells for 30 minutes at 4° C. • Add 30 μL per well 2% BSA • At the end of the 1 hour incubation, wash the Capture/ELISA plate(s) with Wash Buffer on the BioTek plate washer. • Transfer 40 μL per well of the lysis plate(s) to the same wells in the Capture/ELISA plate. Incubate cells overnight at 4° C. • At the end of the overnight incubation, wash the ELISA plate(s) with Wash Buffer on BioTek plate washer. • Prepare Detection Antibody Buffer and dispense 50 μL to all wells of ELISA plate(s) except wells G1 & H1. Cover plate and incubate at room temperature for 2 hours with gentle shaking. • At the end of the 2 hour incubation, wash the ELISA plate(s) with Wash Buffer on the BioTek plate washer. • Prepare the Conjugated Antibody Buffer and dispense 50 μL to all wells of ELISA plate(s). • Cover the plate and incubate at room temperature for 1 hour with gentle shaking. • At the end of the 1 hour incubation, wash the ELISA plate(s) with Wash Buffer on the BioTek plate washer. • Prepare Substrate Buffer and dispense 50 μL to all wells of ELISA plate(s). • Incubate for a minimum of 10 minutes and read plates on the EnVision 2100 Multilabel Reader (Mirror: Luminescence (404) & Luminescence 700 (212); Measurement Height: 6.5 mm; Measurement Time: 0.2 s). Method 3

Sequence of Cdc7/Dbf4 (O00311 whole entry): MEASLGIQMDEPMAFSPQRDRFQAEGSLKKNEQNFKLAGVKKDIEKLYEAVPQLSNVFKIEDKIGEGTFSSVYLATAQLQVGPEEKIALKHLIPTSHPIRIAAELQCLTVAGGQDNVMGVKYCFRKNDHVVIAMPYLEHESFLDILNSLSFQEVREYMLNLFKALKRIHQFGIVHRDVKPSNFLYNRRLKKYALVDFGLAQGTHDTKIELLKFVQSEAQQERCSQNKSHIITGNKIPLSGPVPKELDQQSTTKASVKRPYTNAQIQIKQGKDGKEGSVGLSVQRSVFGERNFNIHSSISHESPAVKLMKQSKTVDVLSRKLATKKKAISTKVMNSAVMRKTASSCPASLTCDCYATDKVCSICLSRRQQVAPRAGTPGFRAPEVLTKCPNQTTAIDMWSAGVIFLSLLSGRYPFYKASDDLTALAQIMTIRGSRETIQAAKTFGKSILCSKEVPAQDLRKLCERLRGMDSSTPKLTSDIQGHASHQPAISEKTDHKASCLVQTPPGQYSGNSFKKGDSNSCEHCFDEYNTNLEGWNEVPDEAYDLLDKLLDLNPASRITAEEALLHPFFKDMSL
Sequence of Cdc7/Dbf4 (Q9UBU7 whole entry partner): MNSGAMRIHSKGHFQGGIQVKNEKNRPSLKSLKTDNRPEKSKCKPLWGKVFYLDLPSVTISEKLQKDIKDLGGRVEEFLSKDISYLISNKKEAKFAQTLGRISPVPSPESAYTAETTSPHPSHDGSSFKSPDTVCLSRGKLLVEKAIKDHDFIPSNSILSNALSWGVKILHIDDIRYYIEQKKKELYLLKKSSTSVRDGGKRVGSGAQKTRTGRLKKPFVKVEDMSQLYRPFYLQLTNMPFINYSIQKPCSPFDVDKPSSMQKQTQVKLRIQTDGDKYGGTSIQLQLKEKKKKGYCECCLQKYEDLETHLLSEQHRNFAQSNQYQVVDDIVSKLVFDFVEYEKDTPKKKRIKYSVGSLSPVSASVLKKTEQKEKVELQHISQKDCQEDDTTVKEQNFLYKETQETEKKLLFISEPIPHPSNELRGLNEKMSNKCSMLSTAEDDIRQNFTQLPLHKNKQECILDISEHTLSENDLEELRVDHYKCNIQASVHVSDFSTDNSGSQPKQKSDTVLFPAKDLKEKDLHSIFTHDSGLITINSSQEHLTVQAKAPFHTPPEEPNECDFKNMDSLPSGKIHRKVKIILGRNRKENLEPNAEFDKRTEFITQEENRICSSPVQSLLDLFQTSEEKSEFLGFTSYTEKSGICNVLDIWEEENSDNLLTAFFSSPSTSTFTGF

| SMILES | IC50 [1] [nM] | EC50 [2] [nM] |
| --- | --- | --- |
| O=c1[nH]c(-c2ccnc(F)c2)nc(N2CCCC(F)(F)C2)c1Cl [Compound 90, 5-chloro-4-(3,3-difluoro-1-piperidyl)-2-(2-fluoro-4-pyridyl)-1H-pyrimidin-6-one] | 0.355 | – |
| O=c1[nH]c(-c2ccncc2)nc(N2CCN(CC(F)F)CC2)c1Cl [Compound 147] | 1.55 | 427 |
| C[C@@H]1CNCCN1c1nc(-c2ccncc2)[nH]c(=O)c1Cl [Compound 364] | 1.41 | 26.9 |
| O=c1[nH]c(-c2ccnc(F)c2)nc(N2CCNCC(F)(F)C2)c1Cl [Compound 312, 5-chloro-4-(6,6-difluoro-1,4-diazepan-1-yl)-2-(2-fluoro-4-pyridyl)-1H-pyrimidin-6-one hydrochloride] | 0.589 | 11.5 |
| C[C@H]1CN(c2nc(-c3ccncc3)[nH]c(=O)c2Cl)CCN1 [Compound 130] | 2.34 | 776 |
| O=c1[nH]c(-c2ccncc2)nc(N2CCN[C@H](C(F)(F)F)C2)c1Cl [Compound 139] | 4.07 | 851 |
| CC(C)[C@H]1CN(c2nc(-c3ccnc(F)c3)[nH]c(=O)c2Cl)CCN1 [Compound 170] | 1.05 | 21.9 |
| CC(C)(C)[C@H]1CN(c2nc(-c3ccncc3)[nH]c(=O)c2F)CCN1 [Compound 185] | 0.724 | 85.1 |
| C[C@@H]1CNCCN1c1nc(-c2ccnc(F)c2)[nH]c(=O)c1Cl [Compound 323] | 0.537 | 12 |
| O=c1[nH]c(-c2ccnc(F)c2)nc(N2CCOCC2)c1Cl [Compound 316] | 0.525 | 44.7 |
| N[C@@H]1CCCN(c2nc(-c3ccnc(F)c3)[nH]c(=O)c2Cl)C1 [Compound 319] | 0.933 | 126 |
| O=c1[nH]c(-c2ccnc(F)c2)nc(N2CCNCC2)c1Cl [Compound 360] | 0.871 | 83.2 |
| O=c1[nH]c(-c2ccncc2)nc(N2CCN[C@@H](C(F)(F)F)C2)c1Cl [Compound 180] | 1.38 | 37.2 |
| N[C@H]1CCCN(c2nc(-c3ccnc(F)c3)[nH]c(=O)c2Cl)C1 [Compound 317] | 0.676 | 219 |
